From patent US6143764A, “Quinoline and quinazoline derivatives inhibiting platelet-derived growth factor receptor autophosphorylation and pharmaceutical compositions containing the same” (priority 1995, dated 2000) come the findings set out here.

Molecules are shown by their SMILES. Like-named read-outs stand apart in the source and are kept apart here.

The target of one experiment is T1, PDGF receptor (Rattus norvegicus, UniProt Q05030).
T1 construct: cultured rat mesangial cells which are known to have the PDGF receptor; endogenous in cells; host or cells: primary mesangial cells cultured from glomeruli of Wistar-Kyoto rats (Charles River Japan), more than 5 passages
T1 sequence (Q05030 32-1097): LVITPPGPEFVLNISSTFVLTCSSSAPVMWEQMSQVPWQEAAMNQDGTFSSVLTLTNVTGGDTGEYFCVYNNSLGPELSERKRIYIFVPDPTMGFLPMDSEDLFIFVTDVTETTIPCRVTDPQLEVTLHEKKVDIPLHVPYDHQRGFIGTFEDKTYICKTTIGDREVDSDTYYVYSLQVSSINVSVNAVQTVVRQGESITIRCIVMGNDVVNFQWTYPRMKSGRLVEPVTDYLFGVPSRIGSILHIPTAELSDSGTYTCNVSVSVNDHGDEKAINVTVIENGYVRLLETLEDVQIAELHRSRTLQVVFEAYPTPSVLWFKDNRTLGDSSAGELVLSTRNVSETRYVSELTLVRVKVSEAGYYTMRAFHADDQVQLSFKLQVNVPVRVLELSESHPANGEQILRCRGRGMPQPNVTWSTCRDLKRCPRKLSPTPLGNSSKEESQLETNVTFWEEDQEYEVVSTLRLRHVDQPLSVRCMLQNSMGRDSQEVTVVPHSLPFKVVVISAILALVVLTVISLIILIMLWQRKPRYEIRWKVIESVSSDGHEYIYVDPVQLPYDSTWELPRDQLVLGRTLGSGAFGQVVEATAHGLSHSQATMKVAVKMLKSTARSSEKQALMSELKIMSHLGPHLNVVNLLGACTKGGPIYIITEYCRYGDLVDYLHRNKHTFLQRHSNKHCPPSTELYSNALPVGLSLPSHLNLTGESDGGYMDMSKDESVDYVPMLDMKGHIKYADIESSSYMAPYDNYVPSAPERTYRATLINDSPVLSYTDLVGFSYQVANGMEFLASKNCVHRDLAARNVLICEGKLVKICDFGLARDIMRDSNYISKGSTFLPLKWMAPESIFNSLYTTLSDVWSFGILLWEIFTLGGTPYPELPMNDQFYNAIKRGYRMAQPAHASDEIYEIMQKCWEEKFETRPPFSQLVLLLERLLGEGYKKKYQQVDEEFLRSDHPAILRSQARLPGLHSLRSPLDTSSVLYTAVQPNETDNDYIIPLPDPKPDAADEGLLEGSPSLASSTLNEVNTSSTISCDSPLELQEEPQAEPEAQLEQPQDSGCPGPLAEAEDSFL
Briefly: PDGF receptor autophosphorylation inhibition in cultured rat mesangial cells. The class given is cell-based. The note with it: PDGF-BB 50 ng/ml. The method, boiled down: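 Growth-arrested rat mesangial cells (>5 passages, 0.5% FCS for 3 days) preincubated with drug in 0.1% BSA medium for 1 h at 37° C., then stimulated with 50 ng/ml human PDGF-BB for 10 min. Phosphotyrosine Western blot of ~180 kDa receptor band by densitometry, normalized to PDGF-stimulated (100%) and unstimulated (0%) wells.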

Experiment [1] deals with glomerulonephritis associated with mesangial cell growth in rats. Briefly: Effect on nephritis associated with mesangial cell growth in rats (OX-7 induced glomerulonephritis). The note with it: 8 days. The class given is in vivo, Wistar-Kyoto rat. The method, then:
Effect on nephritis associated with mesangial cell growth in rats
Groups of 6 Wistar-Kyoto male rats (7 weeks old, purchased from Charles River Japan, Inc.) were used. OX-7 (prepared according to Pathol. Int., 45, 409 (1995)), a monoclonal antibody against anti-rat Thy1.1, was injected intravenously into the tails of rats at a dose of 1.2 mg/kg to induce glomerulonephritis associated with mesangial cell growth and extracellular matrix accumulation. A test drug suspended in a vehicle, a 1% aqueous cremophor solution, was administered orally 2 times a day starting one day after an OX-7 injection for 8 consecutive days. On day 9, when pathological changes in glomeruli became markedly apparent, the rats were sacrificed and anatomized under anesthesia with ether, and left kidneys were taken out and fixed in formalin. The kidneys were embedded in paraffin and then sectioned thinly, and the sections were stained with a periodic acid-Schiff's reagent. The 20 glomeruli were arbitrarily selected for individual specimens thus prepared, and pathological sclerotic changes were scored as follows:
Average scores for sclerotic change of individual specimens were calculated to quantify the degree of glomerular sclerosis. Average scores of glomerular sclerosis for individual specimens of rat groups administered with the drug were compared with those for control groups administered with the vehicle only to calculate glomerular sclerosis inhibition rates (%). The significance of differences was determined by the Dunnet method after testing homoscedasticity according to the Bartlett method.

For another experiment, the system named is human glioma (GLO7). Nature of the experiment: Antitumor effect of the compounds against human glioma (GLO7), nude mice xenograft. The class given is in vivo. The note with it: Mus musculus, po, 216 h, read-out: Tumor growth inhibition rate (TGIR). For orientation: A xenograft is tissue or cells of one species grown in another, often human tumour cells in immunodeficient mice.

The next experiment deals with St-4 (stomach). Briefly: Antitumor effect against St-4 stomach tumor in nude mice. The class given is in vivo. The note with it: 100 mg/kg intraperitoneally once a day, 9 days. The protocol: (§1) Human glioma, GLO7 (obtained from the Central Institute for Experimental Animals), was transplanted into nude mice. When the tumor had grown to a volume of about 100 mm^3, the nude mice were divided into several groups of 4 animals so as to equalize the average tumor volumes of each group. The test drug was administered orally to animals in experimental groups 2 times a day for 14 consecutive days at 100 mg/kg, and the vehicle was administered to control animals. The tumor growth inhibition rate (TGIR, %) was calculated from the equation: TGIR=(1-Tx/Cx)×100, in which Cx is the tumor volume in the control mice and Tx is the tumor volume in the drug-treated mice, on day X, when the initial tumor volume at the time treatment was commenced is set 1.
(§2) In the same manner as described in 2, various types of tumor cells (obtained from the Central Institute for Experimental Animals) were transplanted into nude mice. When the tumor had grown to a volume of about 100 mm^3, the animals were allocated to several groups each consisting of 4 animals so as to equalize the average tumor volume of each group. Test drugs were administered intraperitoneally to animals in experimental groups once a day for 9 consecutive days at 100 mg/kg, and the vehicle was administered to control animals.

A further experiment deals with COL-1 (colon). Nature of the experiment: Antitumor effect against COL-1 colon tumor in nude mice. The class given is in vivo. The note with it: 100 mg/kg intraperitoneally once a day, 9 days. The protocol: as §1, §2
Another experiment has as its system L-27 (lung). Briefly: Antitumor effect against L-27 lung tumor in nude mice. The class given is in vivo. The note with it: 100 mg/kg intraperitoneally once a day, 9 days. The method, then:
as §1, §2

[2] abbreviates: nude mice, 50 mg/kg orally once a day, 9 days.

Procedure for human glioma (GLO7): Analogously to 2, human glioma cells, GLO7 (obtained from the Central Institute for Experimental Animals), was transplanted into nude mice. When the tumor had grown to a volume of about 100 mm^3, the nude mice were divided into several groups of 4 animals so as to equalize the average tumor volumes of each group. The test drug was administered orally to animals in experimental groups once a day for 9 consecutive days at 50 mg/kg, and the vehicle was administered to control animals. The tumor growth inhibition rate (TGIR, %) was calculated from the equation: TGIR=(1-Tx/Cx)×100, in which Cx is the tumor volume in the control mice and Tx is the tumor volume in the drug-treated mice, on day X, when the initial tumor volume at the time treatment was commenced is set 1.

Turning to `COc1cc2nccc(Oc3ccc(C(=O)c4ccc(C(C)(C)C)cc4)cc3)c2cc1OC` [Compound 32, (4-t-Butylphenyl){4-[(6,7-dimethoxy-4-quinolyl)oxy]phenyl}methanone], half-maximal inhibition on PDGF receptor (IC50) was put at 300 nM. Moreover, the “Glomerular sclerosis inhibition rate” value in experiment [1] (10 mg/kg oral 2 times a day, p < 0.05) is listed as 11.7%; in experiment [1] (30 mg/kg oral 2 times a day, p < 0.05), 10.2%; in experiment [1] (100 mg/kg oral 2 times a day, p < 0.01) it was 13.7%.
`COc1cc2nccc(Oc3ccc(NC(=O)Nc4ccc(F)cc4)cc3)c2cc1OC` [Compound 44, N-(4-Fluorophenyl)-N'-{4-[(6,7-dimethoxy-4-quinolinyl)oxy]phenyl}urea] gave an IC50 at PDGF receptor of 6 nM. For the same molecule, the inhibition in vivo at 50 mg/kg in the experiment with human glioma (GLO7) (setting [2]) is 78%.
For `COc1cc2nccc(Oc3ccc(NC(=O)Nc4ccc(Br)cc4)cc3)c2cc1OC` [Compound 45, N-(4-Bromophenyl)-N'-{4-[(6,7-dimethoxy-4-quinolinyl)oxy]phenyl}urea] the same measures were 14 nM and 68%.
The matching figures for `COc1cc2nccc(Oc3ccc(NC(=O)Nc4ccc(C(F)(F)F)cc4)cc3)c2cc1OC` [Compound 52, N-(4-Trifluoromethylphenyl)-N'-{4-[(6,7-dimethoxy-4-quinolinyl)oxy]phenyl}urea]: 30 nM and 86%.
The matching figures for `COc1cc2nccc(Oc3ccc(NC(=O)Nc4ccccc4C)cc3)c2cc1OC` [Compound 56, N-{4-[(6,7-Dimethoxy-4-quinolyl)oxy]phenyl}-N'-(2-methylphenyl)urea]: 4 nM and 52%.
Consider `COc1ccccc1NC(=O)Nc1ccc(Oc2ccnc3cc(OC)c(OC)cc23)cc1` [Compound 57], for which the IC50 at PDGF receptor worked out at 6 nM. Moreover, the inhibition in vivo at 50 mg/kg in the experiment on human glioma (GLO7) (setting [2]) turned out to be 64%.
Regarding `COc1cccc(NC(=O)Nc2ccc(Oc3ccnc4cc(OC)c(OC)cc34)cc2)c1` [Compound 58], the “Tumor growth inhibition rate (TGIR)” value in the experiment with St-4 (stomach) was 86%; in the experiment on COL-1 (colon), 74%; in the experiment with L-27 (lung), 96%. Also, the inhibition in vivo at 50 mg/kg in the experiment on human glioma (GLO7) turned out to be 57%.
`COc1cc2nccc(Oc3ccc(NC(=O)Nc4cccc(F)c4)cc3)c2cc1OC` [Compound 59] had a half-maximal inhibitory concentration (IC50) against PDGF receptor of 4 nM. In the experiment on human glioma (GLO7) (setting [2]), the inhibition in vivo at 50 mg/kg worked out at 82%.
As for `COc1cc2nccc(Oc3ccc(NC(=O)Nc4ccccc4[N+](=O)[O-])cc3)c2cc1OC` [Compound 168, N-{4-[(6,7-Dimethoxy-4-quinolyl)oxy]phenyl}-N'-(2-nitrophenyl)urea], half-maximal inhibition against PDGF receptor (IC50) was put at 6 nM. The inhibition in vivo at 50 mg/kg in the experiment with human glioma (GLO7) (setting [2]) was 56%.
For `C=CCNC(=O)Nc1ccc(Oc2ccnc3cc(OC)c(OC)cc23)cc1` [Compound 173, N-Allyl-N'-{4-[(6,7-dimethoxy-4-quinolyl)oxy]phenyl}urea] the same measures were 16 nM and 54%.
`CCOC(=O)NC(=O)Nc1ccc(Oc2ccnc3cc(OC)c(OC)cc23)cc1` [Compound 190, N-Ethoxycarbonyl-N'-{4-[(6,7-Dimethoxy-4-quinolyl)oxy]phenyl}urea]: at PDGF receptor, the IC50 worked out at 21 nM. The inhibition in vivo at 50 mg/kg in the experiment on human glioma (GLO7) (setting [2]) amounted to 50%.
As to `CCCNC(=O)Nc1ccc(Oc2ccnc3cc(OC)c(OC)cc23)cc1` [Compound 194, N-{4-[(6,7-Dimethoxy-4-quinolyl)oxy]phenyl}-N'-propylurea], the IC50 against PDGF receptor is 14 nM. Also, the inhibition in vivo at 50 mg/kg in the experiment with human glioma (GLO7) (setting [2]) came to 59%.
In turn, `COc1cc2nccc(Oc3ccc(NC(=O)Nc4cccc(Cl)c4OC)cc3)c2cc1OC` [Compound 225, N-(3-Chloro-2-methoxyphenyl)-N'-{4-[(6,7-dimethoxy-4-quinolyl)oxy]phenyl}urea] yielded an IC50 on PDGF receptor of 47 nM. Further, the inhibition in vivo at 50 mg/kg in the experiment on human glioma (GLO7) (setting [2]) was found to be 58%.
The matching figures for `COc1ccc(Cl)cc1NC(=O)Nc1ccc(Oc2ccnc3cc(OC)c(OC)cc23)cc1` [Compound 227, N-(3-Chloro-6-methoxyphenyl)-N'-{4-[(6,7-dimethoxy-4-quinolyl)oxy]phenyl}urea]: 73 nM and 78%.
With `COc1cc2nccc(Oc3ccc(NC(=O)Nc4ccc(Cl)cc4C)cc3)c2cc1OC` [Compound 242, N-(4-Chloro-2-methylphenyl)-N'-{4-[(6,7-dimethoxy-4-quinolyl)oxy]phenyl}urea], the IC50 against PDGF receptor was 18 nM. In addition, in the experiment with human glioma (GLO7) (setting [2]), the inhibition in vivo at 50 mg/kg came to 62%.
For the molecule `COc1cc2nccc(Oc3ccc(NC(=O)Nc4ccc(Cl)c(N)c4)cc3)c2cc1OC` [Compound 244, N-(3-Amino-4-chlorophenyl)-N'-{4-[(6,7-dimethoxy-4-quinolyl)oxy]phenyl}urea], 9 nM corresponded to half-maximal inhibition against PDGF receptor (IC50). In addition, the inhibition in vivo at 50 mg/kg with human glioma (GLO7) (setting [2]) came out at 73%.
For `COc1cc2nccc(Oc3ccc(NC(=O)Nc4ccc(F)c(F)c4)cc3)c2cc1OC` [Compound 254, N-(3,4-Difluorophenyl)-N'-(4-[(6,7-dimethoxy-4-quinolyl)oxy]phenyl)urea] the same measures were 7 nM and 85%.
`COc1cc2nccc(Oc3ccc(NC(=O)Nc4cc(F)c(F)cc4F)cc3)c2cc1OC` [Compound 255, N-(2,4,5-Trifluorophenyl)-N'-{4-[(6,7-dimethoxy-4-quinolyl)oxy]phenyl}urea] displayed an IC50 on PDGF receptor of 15 nM. For the same molecule, the inhibition in vivo at 50 mg/kg in the experiment on human glioma (GLO7) (setting [2]) was determined as 86%.
For the molecule `COc1cc2nccc(Oc3ccc(NC(=O)Nc4cccc(F)c4F)cc3)c2cc1OC` [Compound 260, N-(2,3-Difluorophenyl)-N'-{4-[(6,7-dimethoxy-4-quinolyl)oxy]phenyl}urea], the IC50 against PDGF receptor worked out at 2 nM. Also, the inhibition in vivo at 50 mg/kg in the experiment with human glioma (GLO7) (setting [2]) came out at 52%.
The matching figures for `COc1cc2nccc(Oc3ccc(NC(=O)Nc4c(F)ccc(F)c4F)cc3)c2cc1OC` [Compound 262, N-(2,3,6-Trifluorophenyl)-N'-{4-[(6,7-dimethoxy-4-quinolyl)oxy]phenyl}urea]: 2 nM and 87%.
The matching figures for `COc1cc2nccc(Oc3ccc(NC(=O)Nc4cccc(Cl)c4)cc3)c2cc1OC` [Compound 267, N-(3-Chlorophenyl)-N'-{4-[(6,7-dimethoxy-4-quinolyl)oxy]phenyl}urea]: 150 nM and 65%.
The matching figures for `COc1cc2nccc(Oc3ccc(NC(=O)Nc4ccc(F)cc4F)cc3)c2cc1OC` [Compound 272, N-(2,4-Difluorophenyl)-N'-{4-[(6,7-dimethoxy-4-quinolyl)oxy]phenyl}urea]: 3 nM and 84%.

As usually defined, the IC50 is the point on the concentration scale where inhibition reaches its midpoint. Read a high IC50 as weaker potency.
